Here are results for four molecules from patent US20110172147A1, “NEUROPEPTIDE-2 RECEPTOR (Y-2R) AGONISTS” (priority 2009, published 2011).

Assay type in all cases: cell-based
In test [1] the target is T1, hNPY2R (Homo sapiens, UniProt P49146).
T1 sequence (P49146 1-381): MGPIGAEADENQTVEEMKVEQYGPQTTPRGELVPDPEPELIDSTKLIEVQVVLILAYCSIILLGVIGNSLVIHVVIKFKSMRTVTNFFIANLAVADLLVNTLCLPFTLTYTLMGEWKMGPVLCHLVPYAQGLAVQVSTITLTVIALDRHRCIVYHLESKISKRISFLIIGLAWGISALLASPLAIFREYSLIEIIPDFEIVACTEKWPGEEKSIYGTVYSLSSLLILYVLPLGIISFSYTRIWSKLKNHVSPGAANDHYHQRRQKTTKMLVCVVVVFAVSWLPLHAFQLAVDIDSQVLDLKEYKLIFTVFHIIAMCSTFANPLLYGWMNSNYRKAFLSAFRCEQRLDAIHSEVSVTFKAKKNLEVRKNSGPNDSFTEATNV
Put plainly: CaFlux Assay (FLIPR), Y2R. On the set-up: expressed in transfected cells; host or cells: HEK-293 stably transfected with G protein chimera Gαqi9. The protocol: HEK-293 cells were stably transfected with the G protein chimera Gαqi9 and the hygromycin-B resistance gene were further transfected with the human NPY2 receptor and G418 antibiotic selection. Following selection in both hygromycin-B and G418, individual clones were assayed for their response to PYY. The transfected cells were cultured in DMEM medium supplemented with 10% fetal bovine serum, 50 μg/mL hygromycin-B, 2 mM glutamine, 100 U/mL penicillin, 100 μg/mL streptomycin and 250 μg/mL G418. Cells are harvested with trypsin-EDTA and counted using ViaCount reagent. The cell suspension volume is adjusted to 4.8×10^5 cells/mL with complete growth media. Aliquots of 25 μL are dispensed into 384 well Poly-D Lysine coated black/clear microplates (Falcon) and the microplates were placed in a 37° C. CO2 incubator overnight. Loading Buffer (Calcium-3 Assay Kit, Molecular Devices) was prepared by dissolving the contents of one vial (Express Kit) into […] Hank's Balanced Salt Solution containing 20 mM HEPES and 5 mM probenecid. Aliquots of 25 μL of diluted dye were dispensed into the cell plates and the plates are then incubated for 1 hour at 37° C. During the incubation, test compounds were prepared at 3.5× the desired concentration in HBSS (20 mM HEPES)/0.05% BSA/1% DMSO and transferred to a 384-well plate for use on FLIPR. After incubation, both the cell and compound plates were brought to the FLIPR and 20 μL of the diluted compounds were transferred to the cell plates by the FLIPR. During the assay, fluorescence readings were taken simultaneously from all 384 wells of the cell plate every 1.5 seconds. Five readings were taken to establish a stable baseline, and then 20 μL of sample was rapidly (30 μL/sec) and simultaneously added to each well of the cell plate. The fluorescence was continuously monitored before, during and after sample addition for a total elapsed time of 100 seconds. Responses (increase in peak fluorescence) in each well following addition were determined. The initial fluorescence reading from each well, prior to ligand stimulation, was used as a zero baseline value for the data from that well. The responses are expressed as % of maximal response of the positive control.

The next test addresses T2, Y5R (Homo sapiens, UniProt Q15761).
T2 sequence (Q15761 1-445): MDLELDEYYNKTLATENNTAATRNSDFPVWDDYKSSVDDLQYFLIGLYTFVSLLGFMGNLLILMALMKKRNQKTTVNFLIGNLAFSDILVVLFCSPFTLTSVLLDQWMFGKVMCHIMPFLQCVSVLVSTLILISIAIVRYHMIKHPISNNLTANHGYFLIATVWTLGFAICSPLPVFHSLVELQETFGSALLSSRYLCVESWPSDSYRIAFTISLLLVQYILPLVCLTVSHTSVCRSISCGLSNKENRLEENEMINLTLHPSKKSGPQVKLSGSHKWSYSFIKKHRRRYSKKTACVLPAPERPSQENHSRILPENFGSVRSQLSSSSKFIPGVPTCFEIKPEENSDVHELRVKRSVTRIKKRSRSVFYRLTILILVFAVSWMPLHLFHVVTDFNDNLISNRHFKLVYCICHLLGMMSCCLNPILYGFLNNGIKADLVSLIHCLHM
Kind of test: CaFlux Assay (FLIPR), Y5R.

The target in test [2] is T1, hNPY2R. Put plainly: cAMP Agonist Assay, HEK293/hNPY2R. On the set-up: expressed in transfected cells; host or cells: HEK293/hNPY2R (G418 selection). How it is done:
In this example, the following materials were used: 384-well plate; Tropix cAMP-Screen Kit; cAMP ELISA System (Applied Biosystems, cat. #T1505; CS 20000); Forskolin (Calbiochem cat. # 344270); cells: HEK293/hNPY2R; growth medium: Dulbecco's modified eagle medium (D-MEM, Gibco); 10% Fetal bovine serum (FBS, Gibco), heat-inactivated; 1% Penicillin/Streptomycin (Pen 10000 unit/mL: Strep […], Gibco); […] G418 (Geneticin, Gibco cat. # 11811-031); and plating medium: DMEM/F12 w/o phenol red (Gibco); 10% FBS (Gibco, cat. # 10082-147), heat-inactivated; 1% Penicillin/Streptomycin (Gibco, cat. # 15140-122); […] G418 (Geneticin, Gibco, cat. # 11811-031).
On the first day, medium was discarded, and the monolayer cells were washed with 10 mL PBS per flask (T225). After decanting with PBS, 5 mL VERSENE (Gibco, cat #1504006) was used to dislodge the cells (5 min @37 C). The flask was gently tapped and the cell suspension was pooled. Each flask was rinsed with 10 mL plating medium and centrifuged at 1000 rpm for 5 min. The suspension was pooled and counted. The suspension was resuspended in plating medium at a density of 2.0×10^5 cells/mL for HEK293/hNPY2R. 50 microliters of cells (HEK293/hNPY2R-10,000 cells/well) were transferred into the 384-well plate using Multi-drop dispenser. The plates were incubated at 37° C. overnight. On the second day, the cells were checked for 75-85% confluence. The media and reagents were allowed to come to room temperature. Before the dilutions were prepared, the stock solution of stimulating compound in dimethyl sulphoxide (DMSO, Sigma, cat #D2650) was allowed to warm up to 32 C for 5-10 min. The dilutions were prepared in DMEM/F12 with 0.5 mM 3-Isobutyl-1-methylxanthine (IBMX, Calbiochem, cat #410957) and 0.5 mg/mL BSA. The final DMSO concentration in the stimulation medium was 1.1% with Forskolin concentration of 5 μM. The cell medium was tapped off with a gentle inversion of the cell plate on a paper towel. 50 μL of stimulation medium was placed per well (each concentration done in four replicates). The plates were incubated at room temperature for 30 min, and the cells were checked under a microscope for toxicity. After 30 minutes of treatment, the stimulation media was discarded and […] of Assay Lysis Buffer (provided in the Tropix kit) was added. The plates were incubated for 45 min @ 37° C. 20 μL of the lysate was transferred from stimulation plates into the pre-coated antibody plates (384-well) from the Tropix kit. 10 μL of AP conjugate and 20 μL of anti-cAMP antibody was added. The plates were incubated at room temperature while shaking for 1 hour. The plates were then washed 5 times with Wash Buffer, 70 μL per well for each wash. The plates were tapped to dry. 30 μL/well of CSPD/Saphire-II RTU substrate/enhancer solution was added and incubated for 45 min @ RT (shake). Signal for 1 sec/well in a Luminometer. (VICTOR-V) was measured.

A further test addresses Y4R (Homo sapiens, UniProt P50391). Put plainly: CaFlux Assay (FLIPR), Y4R.
In the next test the target is T3, Y1R (Homo sapiens, UniProt P25929).
T3 sequence (P25929 1-384): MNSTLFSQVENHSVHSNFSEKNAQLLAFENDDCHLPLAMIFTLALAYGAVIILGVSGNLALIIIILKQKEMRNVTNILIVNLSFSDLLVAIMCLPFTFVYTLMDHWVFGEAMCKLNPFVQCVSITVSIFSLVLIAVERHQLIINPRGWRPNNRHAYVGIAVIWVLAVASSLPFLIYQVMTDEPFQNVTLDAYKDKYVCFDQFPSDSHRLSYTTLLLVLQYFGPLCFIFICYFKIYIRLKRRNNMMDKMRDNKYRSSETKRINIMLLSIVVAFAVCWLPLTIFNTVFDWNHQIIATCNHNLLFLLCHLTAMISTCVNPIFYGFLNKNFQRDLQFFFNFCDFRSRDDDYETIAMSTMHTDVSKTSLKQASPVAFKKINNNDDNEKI
Put plainly: CaFlux Assay (FLIPR), Y1R.

Structures are written as SMILES.

Sequence of Y4R (P50391 whole entry): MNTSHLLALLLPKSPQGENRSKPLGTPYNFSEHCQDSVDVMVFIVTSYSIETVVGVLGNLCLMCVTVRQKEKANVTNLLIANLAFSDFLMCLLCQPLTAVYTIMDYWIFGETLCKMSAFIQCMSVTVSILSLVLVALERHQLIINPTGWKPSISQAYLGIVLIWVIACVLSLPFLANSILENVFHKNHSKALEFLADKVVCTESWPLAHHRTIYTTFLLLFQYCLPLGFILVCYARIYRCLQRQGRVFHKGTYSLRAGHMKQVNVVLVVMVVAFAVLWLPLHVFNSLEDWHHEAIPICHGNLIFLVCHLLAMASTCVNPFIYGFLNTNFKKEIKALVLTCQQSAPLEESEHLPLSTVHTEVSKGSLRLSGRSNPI

Consider `CCCCCCCCCCCCCCCC(=O)NCCOCCNC(=O)CCC(=O)NCCCC[C@H](NC(=O)[C@@H](NC(=O)CCOCCOCCOCCOCCOCCOCCOCCOCCOCCOCCOCCOCCOCCOCCOCCOCCOCCOCCOCCOCCOCCOCCOCCOC)[C@@H](C)CC)C(=O)N1CCN(c2ccc3ncn(CC(=O)N[C@@H](CCCNC(=N)N)C(=O)N[C@@H](Cc4c[nH]cn4)C(=O)N[C@@H](Cc4ccc(O)cc4)C(=O)N[C@@H](CC(C)C)C(=O)N[C@@H](CC(N)=O)C(=O)N[C@@H](Cc4c[nH]c5ccccc45)C(=O)N[C@H](C(=O)N[C@H](C(=O)N[C@@H](CCCNC(=N)N)C(=O)N[C@@H](CCC(N)=O)C(=O)N(C)[C@@H](CCCNC(=N)N)C(=O)N[C@@H](Cc4ccc(O)cc4)C(N)=O)[C@@H](C)O)C(C)C)c(=O)c3c2)CC1` [Example 15], for which the half-maximal effective concentration (EC50) is 0.084 nM at hNPY2R [1]; 248 nM at Y5R; 0.06 nM at hNPY2R [2]; above 5000 nM at Y4R; above 5000 nM at Y1R. Moreover, the “Y5R FLIPR agonist character (partial agonist mark)” value on Y5R (FLIPR) is given as “P.A”.
`CCCCCCCCCCCCCCCC(=O)NCCOCCNC(=O)CCC(=O)NCCCC[C@H](NC(=O)[C@@H](NC(=O)CCOCCOCCOCCOCCOCCOCCOCCOCCOCCOCCOCCOCCOCCOCCOCCOCCOCCOCCOCCOCCOCCOCCOCCOC)[C@@H](C)CC)C(=O)N1CCN(c2ccc3ncn(CC(=O)N[C@@H](CCCNC(N)=O)C(=O)N[C@@H](Cc4c[nH]cn4)C(=O)N[C@@H](Cc4ccc(O)cc4)C(=O)N[C@@H](CC(C)C)C(=O)N[C@@H](CC(N)=O)C(=O)N[C@@H](Cc4c[nH]c5ccccc45)C(=O)N[C@H](C(=O)N[C@H](C(=O)N[C@@H](CCCNC(=N)N)C(=O)N[C@@H](CCC(N)=O)C(=O)N(C)[C@@H](CCCNC(=N)N)C(=O)N[C@@H](Cc4ccc(O)cc4)C(N)=O)[C@@H](C)O)C(C)C)c(=O)c3c2)CC1` [Example 16]: the concentration giving a half-maximal response (EC50) was 0.059 nM at hNPY2R [1]; 1360 nM on Y5R; 0.09 nM at hNPY2R [2]; above 5000 nM at Y4R; above 5000 nM at Y1R.
Regarding `CC[C@H](C)[C@H](NC(=O)CCCCCNC(=O)CCOCCOCCOCCOCCOCCOCCOCCOC)C(=O)N[C@@H](CCCCN)C(=O)N1CCN(c2ccc3ncn(CC(=O)N[C@@H](CCCNC(=N)N)C(=O)N[C@@H](Cc4c[nH]cn4)C(=O)N[C@@H](Cc4ccc(O)cc4)C(=O)N[C@@H](CC(C)C)C(=O)N[C@@H](CC(N)=O)C(=O)N[C@@H](Cc4c[nH]c5ccccc45)C(=O)N[C@H](C(=O)N[C@H](C(=O)N[C@@H](CCCNC(=N)N)C(=O)N[C@@H](CCC(N)=O)C(=O)N(C)[C@@H](CCCNC(=N)N)C(=O)N[C@@H](Cc4ccc(O)cc4)C(N)=O)[C@@H](C)O)C(C)C)c(=O)c3c2)CC1` [Example 17], the EC50 on hNPY2R [1] is 0.479 nM; on Y5R, above 6000 nM; on hNPY2R [2], 1.4 nM; at Y4R it was above 6000 nM; at Y1R, above 6000 nM.
Regarding `CC[C@H](C)[C@H](NC(=O)CCCCCNC(=O)CCOCCOCCOCCOCCOCCOCCOCCOCCOCCOCCOCCOC)C(=O)N[C@@H](CCCCN)C(=O)N1CCN(c2ccc3ncn(CC(=O)N[C@@H](CCCNC(=N)N)C(=O)N[C@@H](Cc4c[nH]cn4)C(=O)N[C@@H](Cc4ccc(O)cc4)C(=O)N[C@@H](CC(C)C)C(=O)N[C@@H](CC(N)=O)C(=O)N[C@@H](Cc4c[nH]c5ccccc45)C(=O)N[C@H](C(=O)N[C@H](C(=O)N[C@@H](CCCNC(=N)N)C(=O)N[C@@H](CCC(N)=O)C(=O)N(C)[C@@H](CCCNC(=N)N)C(=O)N[C@@H](Cc4ccc(O)cc4)C(N)=O)[C@@H](C)O)C(C)C)c(=O)c3c2)CC1` [Example 18], the 50% effective concentration (EC50) was 0.357 nM at hNPY2R [1]; above 6000 nM at Y5R; 0.9 nM at hNPY2R [2]; above 6000 nM on Y4R; above 6000 nM at Y1R.
